Assay results taken from ChEMBL document CHEMBL5247586, “Discovery of fusidic acid derivatives as novel STING inhibitors for treatment of sepsis” (Eur J Med Chem, 2022).

Key:
[1] = Cytotoxicity against mouse RAW264.7 cells assessed as cell viability at 40 uM measured after 24 hrs by MTT assay relative to control; type: toxicity, cell-based; conditions: read-out: Activity
[2] = test system: RAW264.7; assay: Anti inflammatory activity in LPS-induced mouse RAW264.7 cells assessed as inhibition of NO production at 2.5 uM preincubated with compound for 2 hrs followed by LPS stimulation and measured after 24 hrs by griess reagent based assay relative to control; type: functional; conditions: time 26 hrs
[3] = test system: RAW264.7; assay: Anti inflammatory activity in LPS-induced mouse RAW264.7 cells assessed as inhibition of NO production at 5 uM preincubated with compound for 2 hrs followed by LPS stimulation and measured after 24 hrs by griess reagent based assay relative to control; type: functional; conditions: time 26 hrs
[4] = test system: RAW264.7; assay: Anti inflammatory activity in LPS-induced mouse RAW264.7 cells assessed as inhibition of NO production preincubated with compound for 2 hrs followed by LPS stimulation and measured after 24 hrs by griess reagent based assay; type: functional, cell-based

IC50 [4] | SMILES | viability at 24 h, 40 µM [1] | inhibition at 2.5 µM [2] | inhibition at 5 µM [3]
 | CC(=O)O[C@H]1C[C@@]2(C)[C@@H](C[C@@H](O)[C@H]3[C@@]4(C)CC[C@@H](O)[C@@H](C)[C@@H]4CC[C@@]32C)/C1=C(\CCC=C(C)C)C(=O)NOc1ccc([N+](=O)[O-])cc1[N+](=O)[O-] | 15.2% |  | 
2.5 µM | CON(C)C(=O)CCSSCCC(=O)O[C@@H]1CC[C@@]2(C)[C@@H](CC[C@@]3(C)[C@H]2[C@H](O)C[C@H]2/C(=C(\CCC=C(C)C)C(=O)OCc4ccccc4)[C@@H](OC(C)=O)C[C@@]23C)[C@@H]1C | 90.2% | 54.6% | 59.3%
 | CC(=O)O[C@H]1C[C@@]2(C)[C@@H](C[C@@H](O)[C@H]3[C@@]4(C)CC[C@@H](OC(=O)c5ccccc5C(=O)n5cccn5)[C@@H](C)[C@@H]4CC[C@@]32C)/C1=C(\CCC=C(C)C)C(=O)OCc1ccccc1 | 76.6% |  | 
6.92 µM | CON(C)C(=O)c1ccccc1C(=O)O[C@@H]1CC[C@@]2(C)[C@@H](CC[C@@]3(C)[C@H]2[C@H](O)C[C@H]2/C(=C(\CCC=C(C)C)C(=O)OCc4ccccc4)[C@@H](OC(C)=O)C[C@@]23C)[C@@H]1C | 100% | 24% | 44.5%
7.61 µM | CC(=O)O[C@H]1C[C@@]2(C)[C@@H](C[C@@H](O)[C@H]3[C@@]4(C)CC[C@@H](OC(=O)c5ccccc5C(=O)N5CCOCC5)[C@@H](C)[C@@H]4CC[C@@]32C)/C1=C(\CCC=C(C)C)C(=O)OCc1ccccc1 | 102% | 28.4% | 44.5%
1.14 µM | O=C(Nc1ccc(I)cc1)c1ccc([N+](=O)[O-])o1 |  |  | 
 | CC(=O)O[C@H]1C[C@@]2(C)[C@@H](C[C@@H](O)[C@H]3[C@@]4(C)CC[C@@H](O)[C@@H](C)[C@@H]4CC[C@@]32C)/C1=C(\CCC=C(C)C)C(=O)O [FUSIDIC ACID] | 91.3% | 2.18% | 14.9%
2.62 µM | CC(=O)O[C@H]1C[C@@]2(C)[C@@H](C[C@@H](O)[C@H]3[C@@]4(C)CC[C@@H](OC(=O)CCSSCCC(=O)NOC5CCCCO5)[C@@H](C)[C@@H]4CC[C@@]32C)/C1=C(\CCC=C(C)C)C(=O)OCc1ccccc1 (some centres undefined) | 90.2% | 55.2% | 65.2%
 | CC(=O)O[C@H]1C[C@@]2(C)[C@@H](C[C@@H](O)[C@H]3[C@@]4(C)CC[C@@H](OC(=O)c5ccccc5C(=O)N5CCN(C)CC5)[C@@H](C)[C@@H]4CC[C@@]32C)/C1=C(\CCC=C(C)C)C(=O)OCc1ccccc1 | 108% | 8.43% | 14.7%
10 µM | CC(=O)O[C@H]1C[C@@]2(C)[C@@H](C[C@@H](O)[C@H]3[C@@]4(C)CC[C@@H](OC(=O)CCSSCCC(=O)NOC(=O)c5ccc([N+](=O)[O-])cc5)[C@@H](C)[C@@H]4CC[C@@]32C)/C1=C(\CCC=C(C)C)C(=O)OCc1ccccc1 | 91% | 33.3% | 44.8%
 | CC(=O)O[C@H]1C[C@@]2(C)[C@@H](C[C@@H](O)[C@H]3[C@@]4(C)CC[C@@H](OC(=O)c5ccccc5C(=O)NOCc5ccccc5)[C@@H](C)[C@@H]4CC[C@@]32C)/C1=C(\CCC=C(C)C)C(=O)OCc1ccccc1 | 96% | 8.93% | 11%
 | CC(=O)O[C@H]1C[C@@]2(C)[C@@H](C[C@@H](O)[C@H]3[C@@]4(C)CC[C@@H](O)[C@@H](C)[C@@H]4CC[C@@]32C)/C1=C(\CCC=C(C)C)C(=O)NOC1CCCCO1 (some centres undefined) | 2.83% |  | 
 | CC(=O)O[C@H]1C[C@@]2(C)[C@@H](C[C@@H](O)[C@H]3[C@@]4(C)CC[C@@H](O)[C@@H](C)[C@@H]4CC[C@@]32C)/C1=C(\CCC=C(C)C)C(=O)NOc1ccc([N+](=O)[O-])cc1 | 56.5% |  | 
 | CC(=O)O[C@H]1C[C@@]2(C)[C@@H](C[C@@H](O)[C@H]3[C@@]4(C)CC[C@@H](O)[C@@H](C)[C@@H]4CC[C@@]32C)/C1=C(\CCC=C(C)C)C(=O)NOC(=O)c1ccc([N+](=O)[O-])cc1 | 70.8% |  | 
 | CONC(=O)CCSSCCC(=O)O[C@@H]1CC[C@@]2(C)[C@@H](CC[C@@]3(C)[C@H]2[C@H](O)C[C@H]2/C(=C(\CCC=C(C)C)C(=O)OCc4ccccc4)[C@@H](OC(C)=O)C[C@@]23C)[C@@H]1C | 2.32% |  | 
 | CC(=O)O[C@H]1C[C@@]2(C)[C@@H](C[C@@H](O)[C@H]3[C@@]4(C)CC[C@@H](OC(=O)CCSSCCC(=O)NOC(C)(C)C)[C@@H](C)[C@@H]4CC[C@@]32C)/C1=C(\CCC=C(C)C)C(=O)OCc1ccccc1 | 76% |  | 
 | CC(=O)O[C@H]1C[C@@]2(C)[C@@H](C[C@@H](O)[C@H]3[C@@]4(C)CC[C@@H](OC(=O)c5ccccc5C(=O)NOC5CCCCO5)[C@@H](C)[C@@H]4CC[C@@]32C)/C1=C(\CCC=C(C)C)C(=O)OCc1ccccc1 (some centres undefined) | 94.1% | 7.93% | 19.4%

IC50 [4] | SMILES | viability at 24 h, 40 µM [1] | inhibition at 2.5 µM [2] | inhibition at 5 µM [3]
 | CC(=O)O[C@H]1C[C@@]2(C)[C@@H](C[C@@H](O)[C@H]3[C@@]4(C)CC[C@@H](OC(=O)c5ccccc5C(=O)NOC(C)(C)C)[C@@H](C)[C@@H]4CC[C@@]32C)/C1=C(\CCC=C(C)C)C(=O)OCc1ccccc1 | 98.3% | 13.5% | 25.9%
8.92 µM | C=CCONC(=O)c1ccccc1C(=O)O[C@@H]1CC[C@@]2(C)[C@@H](CC[C@@]3(C)[C@H]2[C@H](O)C[C@H]2/C(=C(\CCC=C(C)C)C(=O)OCc4ccccc4)[C@@H](OC(C)=O)C[C@@]23C)[C@@H]1C | 101% | 24.7% | 39.3%
 | CON(C)C(=O)/C(CCC=C(C)C)=C1\[C@@H](OC(C)=O)C[C@@]2(C)[C@H]1C[C@@H](O)[C@H]1[C@@]3(C)CC[C@@H](O)[C@@H](C)[C@@H]3CC[C@@]12C | 55.5% |  | 
 | CCN1CCN(C(=O)c2ccccc2C(=O)O[C@@H]2CC[C@@]3(C)[C@@H](CC[C@@]4(C)[C@H]3[C@H](O)C[C@H]3/C(=C(\CCC=C(C)C)C(=O)OCc5ccccc5)[C@@H](OC(C)=O)C[C@@]34C)[C@@H]2C)CC1 | 5.62% |  | 
 | CC(=O)O[C@H]1C[C@@]2(C)[C@@H](C[C@@H](O)[C@H]3[C@@]4(C)CC[C@@H](OC(=O)CCSSCCC(=O)N(O)C5CCCCC5)[C@@H](C)[C@@H]4CC[C@@]32C)/C1=C(\CCC=C(C)C)C(=O)OCc1ccccc1 | 80.1% |  | 
 | CC(=O)O[C@H]1C[C@@]2(C)[C@@H](C[C@@H](O)[C@H]3[C@@]4(C)CC[C@@H](OC(=O)CCSSCCC(=O)NOCc5ccccc5)[C@@H](C)[C@@H]4CC[C@@]32C)/C1=C(\CCC=C(C)C)C(=O)OCc1ccccc1 | 98.4% | 8.17% | 12.5%
 | CONC(=O)/C(CCC=C(C)C)=C1\[C@@H](OC(C)=O)C[C@@]2(C)[C@H]1C[C@@H](O)[C@H]1[C@@]3(C)CC[C@@H](O)[C@@H](C)[C@@H]3CC[C@@]12C | 91.4% | 16.5% | 18.3%
 | CC(=O)O[C@H]1C[C@@]2(C)[C@@H](C[C@@H](O)[C@H]3[C@@]4(C)CC[C@@H](O)[C@@H](C)[C@@H]4CC[C@@]32C)/C1=C(\CCC=C(C)C)C(=O)NOCc1ccccc1 | 0.07% |  | 
 | CC(=O)O[C@H]1C[C@@]2(C)[C@@H](C[C@@H](O)[C@H]3[C@@]4(C)CC[C@@H](OC(=O)CCSSCCC(=O)N(C)O)[C@@H](C)[C@@H]4CC[C@@]32C)/C1=C(\CCC=C(C)C)C(=O)OCc1ccccc1 | 48.8% |  | 
 | C=CCONC(=O)/C(CCC=C(C)C)=C1\[C@@H](OC(C)=O)C[C@@]2(C)[C@H]1C[C@@H](O)[C@H]1[C@@]3(C)CC[C@@H](O)[C@@H](C)[C@@H]3CC[C@@]12C | 90.8% | 17.7% | 21.3%
11.6 µM | CC(=O)O[C@H]1C[C@@]2(C)[C@@H](C[C@@H](O)[C@H]3[C@@]4(C)CC[C@@H](OC(=O)c5ccccc5C(=O)N5CCCCC5)[C@@H](C)[C@@H]4CC[C@@]32C)/C1=C(\CCC=C(C)C)C(=O)OCc1ccccc1 | 103% | 16.9% | 30.8%
 | CC(=O)O[C@H]1C[C@@]2(C)[C@@H](C[C@@H](O)[C@H]3[C@@]4(C)CC[C@@H](OC(=O)CCSSCCC(=O)NOc5ccc([N+](=O)[O-])cc5)[C@@H](C)[C@@H]4CC[C@@]32C)/C1=C(\CCC=C(C)C)C(=O)OCc1ccccc1 | 103% | 14.9% | 28.4%
 | CC(=O)O[C@H]1C[C@@]2(C)[C@@H](C[C@@H](O)[C@H]3[C@@]4(C)CC[C@@H](O)[C@@H](C)[C@@H]4CC[C@@]32C)/C1=C(\CCC=C(C)C)C(=O)NOC(C)(C)C | 84.3% |  | 
 | CONC(=O)c1ccccc1C(=O)O[C@@H]1CC[C@@]2(C)[C@@H](CC[C@@]3(C)[C@H]2[C@H](O)C[C@H]2/C(=C(\CCC=C(C)C)C(=O)OCc4ccccc4)[C@@H](OC(C)=O)C[C@@]23C)[C@@H]1C | 106% | 17.3% | 27%
 | CC(=O)O[C@H]1C[C@@]2(C)[C@@H](C[C@@H](O)[C@H]3[C@@]4(C)CC[C@@H](OC(=O)c5ccccc5C(=O)NOc5ccc([N+](=O)[O-])cc5)[C@@H](C)[C@@H]4CC[C@@]32C)/C1=C(\CCC=C(C)C)C(=O)OCc1ccccc1 | 1.66% |  | 
 | CC(=O)O[C@H]1C[C@@]2(C)[C@@H](C[C@@H](O)[C@H]3[C@@]4(C)CC[C@@H](OC(=O)c5ccccc5C(=O)n5ccnc5)[C@@H](C)[C@@H]4CC[C@@]32C)/C1=C(\CCC=C(C)C)C(=O)OCc1ccccc1 | 59.5% |  | 
